Laboratory results published in ChEMBL document CHEMBL6092150, “Exploration of isatin-based inhibitors of SARS-CoV-2 Nsp15 endoribonuclease” (Eur J Med Chem, 2024).
Activity calls are given as the source filed them. No cut-off for these calls is given here.

Tests used:
[1] = target: Replicase polyprotein 1ab (Severe acute respiratory syndrome coronavirus 2) (UniProt P0DTD1); experiment: Inhibition of SARS-CoV-2 recombinant GST-tagged nsp15 endonuclease activity using 5'-6-FAM-AArUAA-lowa Black FQ-3' as substrate assessed as cleavage of substrate at 100 uM measured every 2 min for 1 hrs by FRET-based Nsp15 EndoU assay relative to control
Vero C1008 = experiment: Cytotoxicity against african green monkey Vero E6 cells at 100 uM incubated for 72 hrs by MTT cell viability assay; format: toxicity, cell-based; settings: chlorocebus sabaeus, vero c1008, 72 h
MRC5 = experiment: Cytotoxicity against human MRC5 cells at 100 uM incubated for 72 hrs by MTT cell viability assay; format: toxicity, cell-based; settings: mrc5, 72 h
[2] = target: Replicase polyprotein 1ab (Severe acute respiratory syndrome coronavirus 2) (UniProt P0DTD1); experiment: (§1) Inhibition of SARS-CoV-2 recombinant GST-tagged nsp15 endonuclease activity using 5'-6-FAM-AArUAA-lowa Black FQ-3' as substrate assessed as cleavage of substrate measured every 2 min for 1 hrs by FRET-based Nsp15 EndoU assay
[3] = target: Replicase polyprotein 1ab (Severe acute respiratory syndrome coronavirus 2, UniProt P0DTD1); experiment: as §1
[4] = Cytotoxicity against human A549 cells by MTS cell viability analysis; format: toxicity, cell-based
[5] = target: Replicase polyprotein 1ab (Severe acute respiratory syndrome coronavirus 2) (UniProt P0DTD1); experiment: Effect on SARS-CoV-2 recombinant Nsp15 oligomerization state at 0.1 to 1 mM by Commassie-Native gel electrophoresis; settings: dose 0.1-1 mM

Row | SMILES | inhibition [1] [%] | Activity (Vero C1008) | Activity (MRC5) | inhibition [2] | IC50 [3] [µM] | CC50 [4] [µM] | Activity [5]
1 | O=C1Nc2ccc([N+](=O)[O-])cc2C1=O [5-NITROISATIN] | 40.7 | Non-toxic | Non-toxic | – | – | – | –
2 | N#CC(C#N)=C1C(=O)Nc2ccc(F)cc21 | 30.2 | – | – | Dose-dependent-effect | 236 | – | –
3 | O=C1Nc2ccc(Br)cc2C1=O | 32.7 | – | – | – | – | – | –
4 | N#CC(C#N)=C1C(=O)Nc2c(Br)cc(Br)cc21 | 68.1 | Non-toxic | Non-toxic | Dose-dependent-effect | 53.5 | 134 | inactive
5 | O=C1Nc2ccc(I)cc2C1=O | 26.2 | – | – | – | – | – | –
6 | O=C1Nc2c(Br)cc(Br)cc2C1=O | 58.4 | – | – | – | – | – | –
7 | N#CC(C#N)=C1C(=O)Nc2ccc(I)cc21 | 32.6 | – | – | Dose-dependent-effect | 151 | – | –
8 | O=C1Nc2ccc(F)cc2C1=O | 13.6 | – | – | – | – | – | –
9 | N#CC(C#N)=C1C(=O)Nc2ccc([N+](=O)[O-])cc21 | 61.5 | Non-toxic | Non-toxic | Dose-dependent-effect | 43.5 | 189 | inactive
10 | N#CC(C#N)=C1C(=O)Nc2ccc(Br)cc21 | 55.9 | – | – | Dose-dependent-effect | 82.9 | – | –
11 | N#C[C@@]1(c2ccc3c(N)ncnn23)O[C@H](CO)[C@@H](O)[C@H]1O [GS-441524] | – | – | – | – | – | > 40 | –
